Assay results taken from ChEMBL document CHEMBL5241136, “Design, synthesis and evaluation of heterocyclic 2-phenylacetate derivatives as water-soluble rapid recovery hypnotics” (Bioorg Med Chem Lett, 2023).

Tested on: Rattus norvegicus
Test: Anesthetic activity in rat assessed as time to behavioral recovery
Type: functional
Settings: not given

SMILES | Time [s]
CCOC(=O)Cc1ccc(OCC(=O)N2CCOCC2)c(OCC)c1 | 65.8
CCCOC(=O)Cc1ccc(OCC(=O)N2CCOCC2)c(OCC)c1 | 69.6
CCOc1cc(CC(=O)OC(C)C)ccc1OCC(=O)N1CCOCC1 | 61.7

Tested on: not listed separately
Test: n-Octanol/water partition coefficient, logP of the compound
Type: physicochemical
Settings: n-octanol/water; read-out: logP

SMILES | logP
CCOC(=O)Cc1ccc(OCC(=O)N2CCOCC2)c(OCC)c1 | 1.1
CCCOC(=O)Cc1ccc(OCC(=O)N2CCOCC2)c(OCC)c1 | 1.4
CCOc1cc(CC(=O)OC(C)C)ccc1OCC(=O)N1CCOCC1 | 1.2

Tested on: Rattus norvegicus
Test: Anesthetic activity in rat assessed as time to walk
Type: functional
Settings: not given

SMILES | Time [s]
CCOC(=O)Cc1ccc(OCC(=O)N2CCOCC2)c(OCC)c1 | 25.8
CCCOC(=O)Cc1ccc(OCC(=O)N2CCOCC2)c(OCC)c1 | 37.9
CCOc1cc(CC(=O)OC(C)C)ccc1OCC(=O)N1CCOCC1 | 32.6

Tested on: not listed separately
Test: Toxicity in mouse assessed as lethal dose
Settings: in vivo

SMILES | LD50 [mg/kg]
CCOC(=O)Cc1ccc(OCC(=O)N2CCOCC2)c(OCC)c1 | 227
CCCOC(=O)Cc1ccc(OCC(=O)N2CCOCC2)c(OCC)c1 | 200
CCOc1cc(CC(=O)OC(C)C)ccc1OCC(=O)N1CCOCC1 | 200

Tested on: Mus musculus
Test: Anesthetic activity in mouse assessed as concentration required to induce hypnotic effect
Type: functional
Settings: not given

SMILES | ED50 [mg/kg]
CCOC(=O)Cc1ccc(OCC(=O)N2CCOCC2)c(OCC)c1 | 35.5
CCCOC(=O)Cc1ccc(OCC(=O)N2CCOCC2)c(OCC)c1 | 32.2
CCOc1cc(CC(=O)OC(C)C)ccc1OCC(=O)N1CCOCC1 | 30.8

Tested on: not listed separately
Test: Therapeutic index, ratio of LD50 for toxicity in mouse to HD50 for anesthetic activity in mouse assessed as concentration required to induce hypnotic effect
Settings: read-out: TI

SMILES | selectivity ratio
CCOC(=O)Cc1ccc(OCC(=O)N2CCOCC2)c(OCC)c1 | 6.4
CCCOC(=O)Cc1ccc(OCC(=O)N2CCOCC2)c(OCC)c1 | 6.2
CCOc1cc(CC(=O)OC(C)C)ccc1OCC(=O)N1CCOCC1 | 6.5

Tested on: Oryctolagus cuniculus
Test: Anesthetic activity in rabbit assessed as time to walk
Type: functional
Settings: not given

SMILES | Time [s]
CCOC(=O)Cc1ccc(OCC(=O)N2CCOCC2)c(OCC)c1 | 96.6
CCCOC(=O)Cc1ccc(OCC(=O)N2CCOCC2)c(OCC)c1 | 79.6
CCOc1cc(CC(=O)OC(C)C)ccc1OCC(=O)N1CCOCC1 | 81.4

Tested on: Mus musculus
Test: Anesthetic activity in mouse assessed as time to behavioral recovery
Type: functional
Settings: not given

SMILES | Time [s]
CCOC(=O)Cc1ccc(OCC(=O)N2CCOCC2)c(OCC)c1 | 69.3
CCCOC(=O)Cc1ccc(OCC(=O)N2CCOCC2)c(OCC)c1 | 89.6
CCOc1cc(CC(=O)OC(C)C)ccc1OCC(=O)N1CCOCC1 | 96.8

Tested on: Rattus norvegicus
Test: Anesthetic activity in rat assessed as concentration required to induce hypnotic effect
Type: functional
Settings: not given

SMILES | ED50 [mg/kg]
CCOC(=O)Cc1ccc(OCC(=O)N2CCOCC2)c(OCC)c1 | 10.5
CCCOC(=O)Cc1ccc(OCC(=O)N2CCOCC2)c(OCC)c1 | 12.2
CCOc1cc(CC(=O)OC(C)C)ccc1OCC(=O)N1CCOCC1 | 11.4

Tested on: Mus musculus
Test: Anesthetic activity in mouse assessed as time duration of loss of righting reflex
Type: functional
Settings: not given

SMILES | Time [s]
CCOC(=O)Cc1ccc(OCC(=O)N2CCOCC2)c(OCC)c1 | 112.9
CCCOC(=O)Cc1ccc(OCC(=O)N2CCOCC2)c(OCC)c1 | 104.8
CCOc1cc(CC(=O)OC(C)C)ccc1OCC(=O)N1CCOCC1 | 116.8

Tested on: Oryctolagus cuniculus
Test: Anesthetic activity in rabbit assessed as time duration of loss of righting reflex
Type: functional
Settings: not given

SMILES | Time [s]
CCOC(=O)Cc1ccc(OCC(=O)N2CCOCC2)c(OCC)c1 | 197.2
CCCOC(=O)Cc1ccc(OCC(=O)N2CCOCC2)c(OCC)c1 | 211.4
CCOc1cc(CC(=O)OC(C)C)ccc1OCC(=O)N1CCOCC1 | 188.6

Tested on: not listed separately
Test: Toxicity in rabbit assessed as lethal dose
Set-up: species or system Oryctolagus cuniculus
Settings: in vivo

SMILES | LD50 [mg/kg]
CCOC(=O)Cc1ccc(OCC(=O)N2CCOCC2)c(OCC)c1 | 131
CCCOC(=O)Cc1ccc(OCC(=O)N2CCOCC2)c(OCC)c1 | 108
CCOc1cc(CC(=O)OC(C)C)ccc1OCC(=O)N1CCOCC1 | 112

Molecular target: GABA-A receptor; anion channel (Homo sapiens) (UniProt P14867+P47870+P18507+P28472+P48169+Q99928+Q9UN88+P34903+O00591+O14764+Q8N1C3+P18505+P78334+P47869+P31644+Q16445)
Test: Inhibition of GABAA receptor (unknown origin) at 50 uM by radioligand receptor binding assay relative to control
Type: protein-complex assay
Settings: not given

SMILES | inhibition [%]
CCOC(=O)Cc1ccc(OCC(=O)N2CCOCC2)c(OCC)c1 | 62.8
CCCOC(=O)Cc1ccc(OCC(=O)N2CCOCC2)c(OCC)c1 | 64.3
CCOc1cc(CC(=O)OC(C)C)ccc1OCC(=O)N1CCOCC1 | 76.8

Tested on: not listed separately
Test: Therapeutic index, ratio of LD50 for toxicity in rabbit to HD50 for anesthetic activity in rabbit assessed as concentration required to induce hypnotic effect
Settings: read-out: TI

SMILES | selectivity ratio
CCOC(=O)Cc1ccc(OCC(=O)N2CCOCC2)c(OCC)c1 | 17.3
CCCOC(=O)Cc1ccc(OCC(=O)N2CCOCC2)c(OCC)c1 | 16.6
CCOc1cc(CC(=O)OC(C)C)ccc1OCC(=O)N1CCOCC1 | 15.2

Tested on: Oryctolagus cuniculus
Test: Anesthetic activity in rabbit assessed as onset time
Type: functional
Settings: not given

SMILES | Time [s]
CCOC(=O)Cc1ccc(OCC(=O)N2CCOCC2)c(OCC)c1 | 24.6
CCCOC(=O)Cc1ccc(OCC(=O)N2CCOCC2)c(OCC)c1 | 21.3
CCOc1cc(CC(=O)OC(C)C)ccc1OCC(=O)N1CCOCC1 | 19.9

Tested on: Oryctolagus cuniculus
Test: Anesthetic activity in rabbit assessed as concentration required to induce hypnotic effect
Type: functional
Settings: not given

SMILES | ED50 [mg/kg]
CCOC(=O)Cc1ccc(OCC(=O)N2CCOCC2)c(OCC)c1 | 7.6
CCCOC(=O)Cc1ccc(OCC(=O)N2CCOCC2)c(OCC)c1 | 6.5
CCOc1cc(CC(=O)OC(C)C)ccc1OCC(=O)N1CCOCC1 | 7.4

Tested on: Rattus norvegicus
Test: Anesthetic activity in rat assessed as time duration of loss of righting reflex
Type: functional
Settings: not given

SMILES | Time [s]
CCOC(=O)Cc1ccc(OCC(=O)N2CCOCC2)c(OCC)c1 | 78.9
CCCOC(=O)Cc1ccc(OCC(=O)N2CCOCC2)c(OCC)c1 | 81.2
CCOc1cc(CC(=O)OC(C)C)ccc1OCC(=O)N1CCOCC1 | 84.6

Tested on: Mus musculus
Test: Anesthetic activity in mouse assessed as onset time
Type: functional
Settings: not given

SMILES | Time [s]
CCOC(=O)Cc1ccc(OCC(=O)N2CCOCC2)c(OCC)c1 | 7.6
CCCOC(=O)Cc1ccc(OCC(=O)N2CCOCC2)c(OCC)c1 | 6.7
CCOc1cc(CC(=O)OC(C)C)ccc1OCC(=O)N1CCOCC1 | 7.5

Tested on: not listed separately
Test: Toxicity in rat assessed as lethal dose
Settings: in vivo

SMILES | LD50 [mg/kg]
CCOC(=O)Cc1ccc(OCC(=O)N2CCOCC2)c(OCC)c1 | 89.3
CCCOC(=O)Cc1ccc(OCC(=O)N2CCOCC2)c(OCC)c1 | 123
CCOc1cc(CC(=O)OC(C)C)ccc1OCC(=O)N1CCOCC1 | 128

Tested on: Rattus norvegicus
Test: Anesthetic activity in rat assessed as onset time
Type: functional
Settings: not given

SMILES | Time [s]
CCOC(=O)Cc1ccc(OCC(=O)N2CCOCC2)c(OCC)c1 | 8.7
CCCOC(=O)Cc1ccc(OCC(=O)N2CCOCC2)c(OCC)c1 | 9.2
CCOc1cc(CC(=O)OC(C)C)ccc1OCC(=O)N1CCOCC1 | 11.1

Tested on: not listed separately
Test: Therapeutic index, ratio of LD50 for toxicity in rat to HD50 for anesthetic activity in rat assessed as concentration required to induce hypnotic effect
Settings: read-out: TI

SMILES | selectivity ratio
CCOC(=O)Cc1ccc(OCC(=O)N2CCOCC2)c(OCC)c1 | 8.5
CCCOC(=O)Cc1ccc(OCC(=O)N2CCOCC2)c(OCC)c1 | 10.1
CCOc1cc(CC(=O)OC(C)C)ccc1OCC(=O)N1CCOCC1 | 11.2

Tested on: Mus musculus
Test: Anesthetic activity in mouse assessed as time to walk
Type: functional
Settings: not given

SMILES | Time [s]
CCOC(=O)Cc1ccc(OCC(=O)N2CCOCC2)c(OCC)c1 | 39.8
CCCOC(=O)Cc1ccc(OCC(=O)N2CCOCC2)c(OCC)c1 | 46.8
CCOc1cc(CC(=O)OC(C)C)ccc1OCC(=O)N1CCOCC1 | 54.9
